{"source": "the SangsterLogP compilation", "key": {"[1]": {"assay": "method code SF-AS, from DOI: 10.1016/s0006-2952(02)01074-2, PMID: 12392818", "conditions": "pH 7.4"}, "[2]": {"assay": "method code SF-AS, from DOI: 10.1271/bbb1961.46.2755"}, "[3]": {"assay": "method code SF-CR+AS, from Korenman, I.; Tishchenko, M.; Kombarova, A. (1977). Distribution of dihydroxynaphthalenes between higher alcohols and water. Zh. Prikl. Khim., 50(4)899-901.", "conditions": "pH 2.0"}, "[4]": {"assay": "method code SF-RC, from DOI: 10.1002/jlcr.1525"}, "[5]": {"assay": "method code SF-CR+AS, from Korenman, I.; Lineva, S.; Gezikova, N. (1978). Extraction of naphthol-sulfonic acids from aqueous solution. Zh. Prikl. Khim., 51(4)869-871."}, "[6]": {"assay": "method code SF-RC, from DOI: 10.1016/j.apradiso.2013.03.021, PMID: 23602704", "conditions": "pH 7.4"}, "[7]": {"assay": "not given", "remark": "listed apart in the source"}, "[8]": {"assay": "method code SF-AS, from DOI: 10.1016/0005-2744(69)90103-x, PMID: 4387594"}, "[9]": {"assay": "method code SF-HPLC, from DOI: 10.1002/ps.2780130506"}, "[10]": {"assay": "method code SF-AS, from DOI: 10.1080/10826079508009280", "conditions": "pH 7.0"}, "[11]": {"assay": "not given", "remark": "listed apart in the source"}, "[12]": {"assay": "method code SF-RC, from Lázníček, M., Waisser, K., Květina, J., Beňo, P., & Tichý, M. (1985). QSAR methods in pharmacokinetic analysis. QSAR in Toxicology and Xenobiochemistry, 249-256.", "conditions": "pH 1.0"}, "[13]": {"assay": "method code SF-AS, from DOI: 10.1021/jm00297a026, PMID: 5441130"}, "[14]": {"assay": "method code …, from Korenman, I.; Polumestnaya, I.; Mezentseva, P. (1979). Investigations of the relationship of extraction of 1-naphthol and some of its derivatives by the method of correlation equations. Zh. Prikl. …", "conditions": "pH 2.0"}, "[15]": {"assay": "method code SF, from DOI: 10.1021/jm00002a007, PMID: 7830268"}, "[16]": {"assay": "method code SF-AS, from DOI: 10.1016/0039-9140(66)80126-1, PMID: 18959847", "conditions": "pH 7.5"}, "[17]": {"assay": "not given", "remark": "listed apart in the source"}, "[18]": {"assay": "method code SF-HPLC, from DOI: 10.1023/a:1007522626070, PMID: 10714611", "conditions": "pH 7.4"}, "[19]": {"assay": "not given", "remark": "listed apart in the source"}, "[20]": {"assay": "method code SF-HPLC, from DOI: 10.1016/0378-5173(85)90011-0"}, "[21]": {"assay": "not given", "remark": "listed apart in the source"}, "[22]": {"assay": "method code SF-HPLC, from DOI: 10.1016/0378-5173(84)90193-5", "conditions": "pH 4.0"}, "[23]": {"assay": "method code SF-RC, from DOI: 10.1016/0006-2952(75)90159-8, PMID: 1168477"}, "[24]": {"assay": "method code SF, from DOI: 10.1021/ac00105a018"}, "[25]": {"assay": "not given", "remark": "listed apart in the source"}, "[26]": {"assay": "method code SF-AS, from PMID: 6692390", "conditions": "pH 4.0"}, "[27]": {"assay": "method code SF-AS, from Korenman, Y.; Pazynin, T. (1972). Distribution of nitrosonaphthols between organic solvents and water. J. anal. chem. USSR, 27(4)723-725.", "conditions": "pH 2.0"}, "[28]": {"assay": "not given", "remark": "listed apart in the source"}, "[29]": {"assay": "method code SF, from DOI: 10.1246/bcsj.60.4357"}, "[30]": {"assay": "not given", "remark": "listed apart in the source"}, "[31]": {"assay": "method code SF-AS, from DOI: 10.1002/chin.198419165, PMID: 6653771", "conditions": "pH 2.5"}, "[32]": {"assay": "method code SF-AS, from DOI: 10.1081/jlc-100100410", "conditions": "pH 4.0"}, "[33]": {"assay": "method code SF-AS, from DOI: 10.1002/jps.2600711105", "conditions": "pH 7.4"}, "[34]": {"assay": "method code SF-GLC, from DOI: 10.1016/j.chemosphere.2004.08.061, PMID: 15519382"}, "[35]": {"assay": "method code SF-HPLC, from DOI: 10.1111/j.2042-7158.1995.tb05807.x, PMID: 7791035", "conditions": "pH 7.0"}, "[36]": {"assay": "method code SF, from Korenman, I.; Polumestnaya, I. (1982). Principles of interfacial distribution of certain substituted naphthalenes. Zh. Prikl. Khim., 55(2)364-367."}, "[37]": {"conditions": "pH 4.3"}, "[38]": {"assay": "method code SF-AS, from DOI: 10.1248/cpb.39.1217"}, "[39]": {"assay": "method code SF-AS, from DOI: 10.1016/s0378-5173(98)00405-0, PMID: 10089287", "conditions": "pH 7.4"}, "[40]": {"assay": "method code SF-AS, from DOI: 10.1016/0378-5173(82)90005-9", "conditions": "pH 3.0"}, "[41]": {"assay": "method code SF, from DOI: 10.1023/a:1018952108327, PMID: 7855051", "conditions": "pH 5.0"}, "[42]": {"assay": "method code SF-HPLC, from DOI: 10.1248/bpb.16.154, PMID: 8364451"}, "[43]": {"assay": "not given", "remark": "listed apart in the source"}, "[44]": {"assay": "method code SF-AS, from DOI: 10.1002/jhrc.1240040906", "conditions": "pH 5.0"}, "[45]": {"assay": "method code SF-AS, from DOI: 10.1248/cpb.36.1393", "conditions": "pH 7.4"}, "[46]": {"assay": "method code SF-HPLC, from DOI: 10.1021/jm701549s, PMID: 18558667", "conditions": "pH 7.4"}, "[47]": {"assay": "not given", "remark": "listed apart in the source"}, "[48]": {"assay": "method code SF-AS, from DOI: 10.1139/y89-042, PMID: 2547502", "conditions": "pH 7.4"}}}
{"smiles": "OC1CCOc2ccccc21", "note": "(centres undefined)", "values": [{"measurement": "logD", "setting": "[1]", "value": 1.31}]}
{"smiles": "Clc1ccc2ccccc2c1", "values": [{"measurement": "logP", "value": 4.07}]}
{"smiles": "O=C1COC(=O)N1c1ccccc1", "values": [{"measurement": "logP", "setting": "[2]", "value": 0.93}]}
{"smiles": "Oc1cc(O)c2ccccc2c1", "values": [{"measurement": "logD", "setting": "[3]", "value": 1.97}]}
{"smiles": "O=C(O)CN(CCN1CCN=C1[N+](=O)[O-])CC(=O)O", "values": [{"measurement": "logP", "setting": "[4]", "value": -0.82}]}
{"smiles": "O=S(=O)(O)c1cccc2c(O)cccc12", "values": [{"measurement": "logP", "setting": "[5]", "value": -0.17}]}
{"smiles": "Nc1nc(=O)n([C@H]2C[C@H](O)[C@@H](CO)O2)cc1I", "values": [{"measurement": "logD", "setting": "[6]", "value": -0.94}]}
{"smiles": "COC(=O)Nc1nc2ccccc2[nH]1", "values": [{"measurement": "logP", "setting": "[7]", "value": 1.75}]}
{"smiles": "CCCNc1ccccc1", "values": [{"measurement": "logP", "setting": "[8]", "value": 2.45}]}
{"smiles": "CNC(=O)ON=Cc1ccc(Cl)c(Cl)c1", "values": [{"measurement": "logP", "setting": "[9]", "value": 2.89}]}
{"smiles": "Nc1nc(Cl)nc2c1ncn2[C@@H]1O[C@H](CO)[C@@H](O)[C@@H]1F", "values": [{"measurement": "logD", "setting": "[10]", "value": 0.5}]}
{"smiles": "ClC1=C(Cl)C2(Cl)C3C(Cl)C=CC3C1(Cl)C2(Cl)Cl", "note": "(centres undefined)", "values": [{"measurement": "logP", "setting": "[11]", "value": 5.58}]}
{"smiles": "O=C(O)CCc1ccccc1I", "values": [{"measurement": "logD", "setting": "[12]", "value": 2.47}]}
{"smiles": "CCCCn1cnc2c(N)ncnc21", "values": [{"measurement": "logP", "setting": "[13]", "value": 1.25}]}
{"smiles": "O=Nc1c(Br)cc2ccccc2c1O", "values": [{"measurement": "logD", "setting": "[14]", "value": 2.93}]}
{"smiles": "CCOP(=O)(OCC)C1(C)CCC=[N+]1[O-]", "note": "(centres undefined)", "values": [{"measurement": "logP", "setting": "[15]", "value": -1.22}]}
{"smiles": "Cc1ccc2cccc(O)c2n1", "values": [{"measurement": "logD", "setting": "[16]", "value": 2.33}]}
{"smiles": "Clc1ccc2ccc(Cl)cc2c1", "values": [{"measurement": "logP", "setting": "[17]", "value": 4.81}]}
{"smiles": "CCn1nnc(C2=CCC[N+](C)([O-])C2)n1", "note": "(centres undefined)", "values": [{"measurement": "logD", "setting": "[18]", "value": -1.5}]}
{"smiles": "Cn1c(C(F)(F)F)nc2ccccc21", "values": [{"measurement": "logP", "setting": "[19]", "value": 3.98}]}
{"smiles": "CCCC(=O)n1ncc2c(=O)[nH]cnc21", "values": [{"measurement": "logP", "setting": "[20]", "value": 0.85}]}
{"smiles": "CC(=O)Nc1ccc(OC(=O)CBr)cc1", "values": [{"measurement": "logP", "setting": "[21]", "value": 1.08}]}
{"smiles": "O=c1[nH]cc(F)c(=O)n1Oc1ccccc1", "values": [{"measurement": "logD", "setting": "[22]", "value": 0.8}]}
{"smiles": "CCCN(C(C)=O)C(C)C", "values": [{"measurement": "logP", "setting": "[23]", "value": 1.48}]}
{"smiles": "CCCc1ccc(O)cc1", "values": [{"measurement": "logP", "setting": "[24]", "value": 3}]}
{"smiles": "OC[C@@H]1C[C@@H](F)[C@H](n2cnc3c(F)ncnc32)O1", "values": [{"measurement": "logP", "setting": "[25]", "value": 0.06}]}
{"smiles": "COc1ccc(NC(=O)N(C)N=O)cc1", "values": [{"measurement": "logD", "setting": "[26]", "value": 0.64}]}
{"smiles": "O=Nc1c(O)ccc2ccccc12", "values": [{"measurement": "logD", "setting": "[27]", "value": 2.28}]}
{"smiles": "O=c1[nH]c(-c2ccccc2)nc2nn[nH]c12", "values": [{"measurement": "logP", "setting": "[28]", "value": 1.27}]}
{"smiles": "CC(C)c1cc([N+](=O)[O-])cc([N+](=O)[O-])c1O", "values": [{"measurement": "logP", "setting": "[29]", "value": 3.1}]}
{"smiles": "NC1CC1c1ccccc1", "note": "(centres undefined)", "values": [{"measurement": "logP", "setting": "[30]", "value": 1.49}]}
{"smiles": "O=C(O)c1ccccc1NCCO", "values": [{"measurement": "logD", "setting": "[31]", "value": 1.16}]}
{"smiles": "Nc1ccc(S(=O)(=O)Nc2ccc(Cl)nn2)cc1", "values": [{"measurement": "logD", "setting": "[32]", "value": 0.86}]}
{"smiles": "CC(=O)c1nc([N+](=O)[O-])n(CC(C)O)c1C", "note": "(centres undefined)", "values": [{"measurement": "logD", "setting": "[33]", "value": 0.37}]}
{"smiles": "Cn1c(Cl)c(Br)c(Cl)c1-c1c(Br)c(Br)c(Cl)n1C", "values": [{"measurement": "logP", "setting": "[34]", "value": 6.5}]}
{"smiles": "NC(=O)NC(=O)Cc1ccccc1", "values": [{"measurement": "logD", "setting": "[35]", "value": 0.66}]}
{"smiles": "O=S(=O)(O)c1cc(O)c2ccccc2c1", "values": [{"measurement": "logP", "setting": "[36]", "value": -0.18}]}
{"smiles": "Nc1ccc(S(=O)(=O)Nc2ncccn2)cc1", "values": [{"measurement": "logD", "setting": "[37]", "value": -0.04}]}
{"smiles": "Cc1nccnc1CC(C)C", "values": [{"measurement": "logP", "setting": "[38]", "value": 1.96}]}
{"smiles": "Cc1cc(=O)n2ccccc2n1", "values": [{"measurement": "logD", "setting": "[39]", "value": 0.6}]}
{"smiles": "O=C1NC(=S)NC(=O)C12CCCCC2", "values": [{"measurement": "logD", "setting": "[40]", "value": 1.78}]}
{"smiles": "CN1C(CCl)Nc2cc(Cl)c(S(N)(=O)=O)cc2S1(=O)=O", "note": "(centres undefined)", "values": [{"measurement": "logD", "setting": "[41]", "value": 0.6}]}
{"smiles": "O=C(O)CNC(=O)c1cc(O)ccc1O", "values": [{"measurement": "logP", "setting": "[42]", "value": 0.28}]}
{"smiles": "CCCCC1C(=O)NC(=O)N(C)C1=O", "note": "(centres undefined)", "values": [{"measurement": "logP", "setting": "[43]", "value": 1.1}]}
{"smiles": "NC(=O)c1cnc2n(c1=O)CCCC2", "values": [{"measurement": "logD", "setting": "[44]", "value": -0.38}]}
{"smiles": "[O-][n+]1ccc(Cl)c2ccc(Cl)cc21", "values": [{"measurement": "logD", "setting": "[45]", "value": 1.85}]}
{"smiles": "CN(C)C(=O)c1ccc(Br)cc1", "values": [{"measurement": "logD", "setting": "[46]", "value": 1.83}]}
{"smiles": "Nc1ccc([N+](=O)[O-])c2ccccc12", "values": [{"measurement": "logP", "setting": "[47]", "value": 1.77}]}
{"smiles": "Nc1ncnc2c1nc(Br)n2[C@@H]1O[C@@H]2COP(=O)(O)O[C@H]2[C@H]1O", "values": [{"measurement": "logD", "setting": "[48]", "value": -2.44}]}
